According to ChEMBL document CHEMBL3044830, “Synthesis, characterization, antibacterial, antifungal, and immunomodulating activities of gatifloxacin derivatives” (Med Chem Res, 2010):

How the values were obtained:
Proteus mirabilis [1] = test: Antibacterial activity against Proteus mirabilis assessed as concentration required to obtain a zone of inhibition of 5 mm after 18 to 24 hr by disc diffusion method; format: functional
[2] = Antibacterial activity against Hofmanni bacterium assessed as concentration required to obtain a zone of inhibition of 10 mm after 18 to 24 hr by disc diffusion method
Shigella flexneri [3] = test: Antibacterial activity against Shigella flexneri assessed as concentration required to obtain a zone of inhibition of 10 mm after 18 to 24 hr by disk diffusion method; format: functional
Trichophyton rubrum [4] = test: Antifungal activity against Trichophyton rubrum assessed as concentration required to obtain a zone of inhibition of 20 mm after 7 days by disk diffusion method; format: functional
Pseudomonas aeruginosa [5] = test: Antibacterial activity against Pseudomonas aeruginosa assessed as concentration required to obtain a zone of inhibition of 10 mm after 18 to 24 hr by disk diffusion method; format: functional
Trichophyton rubrum [6] = test: Antifungal activity against Trichophyton rubrum assessed as zone of inhibition at 5 to 40 ug/ml after 7 days by disk diffusion method relative to gatifloxacin; format: functional
Citrobacter [7] = test: Antibacterial activity against Citrobacter assessed as concentration required to obtain a zone of inhibition of 10 mm after 18 to 24 hr by disk diffusion method; format: functional
Shigella sp. [8] = test: Antibacterial activity against Shigella typhi assessed as concentration required to obtain a zone of inhibition of 5 mm after 18 to 24 hr by disc diffusion method; format: functional
Proteus mirabilis [9] = test: Antibacterial activity against Proteus mirabilis assessed as concentration required to obtain a zone of inhibition of 10 mm after 18 to 24 hr by disc diffusion method; format: functional
Fusarium solani [10] = test: Antifungal activity against Fusarium solani assessed as zone of inhibition at 5 to 40 ug/ml after 7 days by disk diffusion method relative to gatifloxacin; format: functional
Blood [11] = test: Antioxidant activity in Homo sapiens (human) whole blood assessed as inhibition of ROS production after 30 min by luminol-enhanced chemiluminescence assay; format: functional, tissue-based; conditions: 0.5 h
Pseudomonas aeruginosa [12] = test: Antibacterial activity against Pseudomonas aeruginosa assessed as concentration required to obtain a zone of inhibition of 5 mm after 18 to 24 hr by disk diffusion method; format: functional
Candida albicans [13] = test: Antifungal activity against Candida albicans assessed as concentration required to obtain a zone of inhibition of 40 mm after 7 days by disk diffusion method; format: functional
Blood [14] = test: Antioxidant activity in Homo sapiens (human) whole blood assessed as inhibition of ROS production at 50 ug/ml after 30 min by luminol-enhanced chemiluminescence assay; format: functional; conditions: 0.5 h
Citrobacter [15] = test: Antibacterial activity against Citrobacter assessed as concentration required to obtain a zone of inhibition of 5 mm after 18 to 24 hr by disk diffusion method; format: functional
Klebsiella pneumoniae [16] = test: Antibacterial activity against Klebsiella pneumoniae assessed as concentration required to obtain a zone of inhibition of 10 mm after 18 to 24 hr by disk diffusion method; format: functional
Fusarium solani [17] = test: Antifungal activity against Fusarium solani assessed as concentration required to obtain a zone of inhibition of 40 mm after 7 days by disk diffusion method; format: functional
Klebsiella pneumoniae [18] = test: Antibacterial activity against Klebsiella pneumoniae assessed as concentration required to obtain a zone of inhibition of 5 mm after 18 to 24 hr by disk diffusion method; format: functional
Saccharomyces cerevisiae = test: Antifungal activity against Saccharomyces cerevisiae assessed as zone of inhibition at 5 to 40 ug/ml after 7 days by disk diffusion method relative to gatifloxacin; format: functional
Shigella sp. [19] = test: Antibacterial activity against Shigella typhi assessed as zone of inhibition after 18 to 24 hr by disc diffusion method relative to gatifloxacin; format: functional
[20] = Antibacterial activity against Hofmanni bacterium assessed as concentration required to obtain a zone of inhibition of 20 mm after 18 to 24 hr by disc diffusion method
Bacillus subtilis [21] = test: Antibacterial activity against Bacillus subtilis assessed as concentration required to obtain a zone of inhibition of 20 mm after 18 to 24 hr by disk diffusion method; format: functional
T-cell [22] = test: Anti-inflammatory activity in Homo sapiens (human) T lymphocytes assessed as inhibition of PHA-induced [3H] thymidine uptake incubated for 72 hr prior to [3H]thymidine addition measured after 18 hr by liquid scintillation method; format: functional, cell-based
Proteus mirabilis [23] = test: Antibacterial activity against Proteus mirabilis assessed as concentration required to obtain a zone of inhibition of 20 mm after 18 to 24 hr by disc diffusion method; format: functional
Citrobacter [24] = test: Antibacterial activity against Citrobacter assessed as zone of inhibition at 5 to 40 ug/ml after 18 to 24 hr by disk diffusion method relative to gatifloxacin; format: functional
Pseudomonas aeruginosa [25] = test: Antibacterial activity against Pseudomonas aeruginosa assessed as zone of inhibition at 5 to 40 ug/ml after 18 to 24 hr by disk diffusion method relative to gatifloxacin; format: functional
Staphylococcus aureus [26] = test: Antibacterial activity against methicillin-resistant Staphylococcus aureus assessed as zone of inhibition at 5 to 40 ug/ml after 18 to 24 hr by disk diffusion method relative to gatifloxacin; format: functional
Escherichia coli [27] = test: Antibacterial activity against Escherichia coli assessed as concentration required to obtain a zone of inhibition of 5 mm after 18 to 24 hr by disk diffusion method; format: functional
T-cell [28] = test: Anti-inflammatory activity in Homo sapiens (human) T lymphocytes assessed as inhibition of PHA-induced [3H] thymidine uptake at 50 ug/ml incubated for 72 hr prior to [3H]thymidine addition measured after 18 hr by liquid scintillation method; format: functional
Shigella flexneri [29] = test: Antibacterial activity against Shigella flexneri assessed as zone of inhibition at 5 to 40 ug/ml after 18 to 24 hr by disk diffusion method relative to gatifloxacin; format: functional
Blood [30] = test: Antioxidant activity in Homo sapiens (human) whole blood assessed as inhibition of ROS production at 12.5 ug/ml after 30 min by luminol-enhanced chemiluminescence assay; format: functional; conditions: 0.5 h
Trichophyton rubrum [31] = test: Antifungal activity against Trichophyton rubrum assessed as concentration required to obtain a zone of inhibition of 40 mm after 7 days by disk diffusion method; format: functional
Staphylococcus aureus [32] = test: Antibacterial activity against methicillin-resistant Staphylococcus aureus assessed as concentration required to obtain a zone of inhibition of 5 mm after 18 to 24 hr by disk diffusion method; format: functional
Shigella flexneri [33] = test: Antibacterial activity against Shigella flexneri assessed as concentration required to obtain a zone of inhibition of 20 mm after 18 to 24 hr by disk diffusion method; format: functional
Escherichia coli [34] = test: Antibacterial activity against Escherichia coli assessed as concentration required to obtain a zone of inhibition of 20 mm after 18 to 24 hr by disk diffusion method; format: functional
Candida albicans [35] = test: Antifungal activity against Candida albicans assessed as concentration required to obtain a zone of inhibition of 20 mm after 7 days by disk diffusion method; format: functional
[36] = Antibacterial activity against Hofmanni bacterium assessed as zone of inhibition after 18 to 24 hr by disc diffusion method relative to gatifloxacin
Bacillus subtilis [37] = test: Antibacterial activity against Bacillus subtilis assessed as zone of inhibition at 5 to 40 ug/ml after 18 to 24 hr by disk diffusion method relative to gatifloxacin; format: functional

SMILES | Activity (Proteus mirabilis [1]) | Activity [2] | Activity (Shigella flexneri [3]) | Activity (Trichophyton rubrum [4]) | Activity (Pseudomonas aeruginosa [5]) | inhibition zone (IZ) (Trichophyton rubrum [6]) | Activity (Citrobacter [7]) | Activity (Shigella sp. [8]) | Activity (Proteus mirabilis [9]) | inhibition zone (IZ) (Fusarium solani [10]) | IC50 (Blood [11]) | Activity (Pseudomonas aeruginosa [12]) | Activity (Candida albicans [13]) | inhibition at 50 µg/mL (Blood [14]) | Activity (Citrobacter [15]) | Activity (Klebsiella pneumoniae [16]) | Activity (Fusarium solani [17]) | Activity (Klebsiella pneumoniae [18]) | inhibition zone (IZ) (Saccharomyces cerevisiae) | inhibition zone (IZ) (Shigella sp. [19]) | further results
COc1c(N2CCN(C(=O)c3ccccc3)C(C)C2)c(F)cc2c(=O)c(C(=O)O)cn(C3CC3)c12.O (centres undefined) | 9 µg/mL | 12 µg/mL | 13 µg/mL | 21 µg/mL | 12 µg/mL | 185% | 10 µg/mL | 8 µg/mL | 11 µg/mL | 120% | > 100 µg/mL | 10 µg/mL | 14 µg/mL | 11.1% | 8 µg/mL | 14 µg/mL | 19 µg/mL | 8 µg/mL | 0% | 80.2% | Activity [20]: 14 µg/mL; Activity (Bacillus subtilis [21]): 18 µg/mL; IC50 (T-cell [22]): > 50 µg/mL; Activity (Proteus mirabilis [23]): 12 µg/mL; inhibition zone (IZ) (Citrobacter [24]): 47.6%; inhibition zone (IZ) (Pseudomonas aeruginosa [25]): 117.9%; inhibition zone (IZ) (Staphylococcus aureus [26]): 87.4%; Activity (Escherichia coli [27]): 8 µg/mL; inhibition at 50 µg/mL (T-cell [28]): -6.9%; inhibition zone (IZ) (Shigella flexneri [29]): 88.1%; inhibition at 12.5 µg/mL (Blood [30]): -5.1%; Activity (Trichophyton rubrum [31]): 27 µg/mL; Activity (Staphylococcus aureus [32]): 9 µg/mL; Activity (Shigella flexneri [33]): 14 µg/mL; Activity (Escherichia coli [34]): 19 µg/mL; Activity (Candida albicans [35]): 10 µg/mL; inhibition zone (IZ) [36]: 86%; inhibition zone (IZ) (Bacillus subtilis [37]): 104%
CCCCCCCC(=O)N1CCN(c2c(F)cc3c(=O)c(C(=O)O)cn(C4CC4)c3c2OC)CC1C.O (centres undefined) | 11 µg/mL | 11 µg/mL | 15 µg/mL | 16 µg/mL | 10 µg/mL | 127% | 10 µg/mL | 8 µg/mL | 12 µg/mL | 110% | < 12.5 µg/mL | 8 µg/mL | 21 µg/mL | 89.2% | 8 µg/mL | 14 µg/mL | 19 µg/mL | 13 µg/mL | 0% | 87.5% | Activity [20]: 14 µg/mL; Activity (Bacillus subtilis [21]): 13 µg/mL; IC50 (T-cell [22]): > 50 µg/mL; Activity (Proteus mirabilis [23]): 14 µg/mL; inhibition zone (IZ) (Citrobacter [24]): 51.5%; inhibition zone (IZ) (Pseudomonas aeruginosa [25]): 78.57%; inhibition zone (IZ) (Staphylococcus aureus [26]): 76.7%; Activity (Escherichia coli [27]): 8 µg/mL; inhibition at 50 µg/mL (T-cell [28]): -6.9%; inhibition zone (IZ) (Shigella flexneri [29]): 105%; inhibition at 12.5 µg/mL (Blood [30]): 74.1%; Activity (Trichophyton rubrum [31]): 17 µg/mL; Activity (Staphylococcus aureus [32]): 7 µg/mL; Activity (Shigella flexneri [33]): 20 µg/mL; Activity (Escherichia coli [34]): 14 µg/mL; Activity (Candida albicans [35]): 16 µg/mL; inhibition zone (IZ) [36]: 88%; inhibition zone (IZ) (Bacillus subtilis [37]): 80.2%
COc1c(N2CCN(C(C)=O)C(C)C2)c(F)cc2c(=O)c(C(=O)O)cn(C3CC3)c12.O (centres undefined) | 9 µg/mL | 12 µg/mL | 22 µg/mL | 28 µg/mL | 17 µg/mL | 239% | 21 µg/mL | 9 µg/mL | 10 µg/mL | 93.3% | > 100 µg/mL | 11 µg/mL | 19 µg/mL | -17.4% | 17 µg/mL | 23 µg/mL | 15 µg/mL | 16 µg/mL | 0% | 113% | Activity [20]: 16 µg/mL; Activity (Bacillus subtilis [21]): 17 µg/mL; IC50 (T-cell [22]): > 50 µg/mL; Activity (Proteus mirabilis [23]): 12 µg/mL; inhibition zone (IZ) (Citrobacter [24]): 98.9%; inhibition zone (IZ) (Pseudomonas aeruginosa [25]): 150.1%; inhibition zone (IZ) (Staphylococcus aureus [26]): 124%; Activity (Escherichia coli [27]): 10 µg/mL; inhibition at 50 µg/mL (T-cell [28]): -52.3%; inhibition zone (IZ) (Shigella flexneri [29]): 151%; inhibition at 12.5 µg/mL (Blood [30]): -14.3%; Activity (Trichophyton rubrum [31]): 34 µg/mL; Activity (Staphylococcus aureus [32]): 14 µg/mL; Activity (Shigella flexneri [33]): 24 µg/mL; Activity (Escherichia coli [34]): 22 µg/mL; Activity (Candida albicans [35]): 16 µg/mL; inhibition zone (IZ) [36]: 99%; inhibition zone (IZ) (Bacillus subtilis [37]): 100%
